What was measured:
[1] = biological target: T1, [3H]citalopram binding site, cerebral cortex membrane preparation (serotonin reuptake) (Rattus norvegicus, UniProt P31652); assay: Screening test using [3H]citalopram binding (Test Example 1); conditions: 0.7 nM [3H]citalopram, test agent concentration not given, read-out: Rate of inhibition of [^3H] citalopram binding (%)
T1 construct: 146 μl of the cerebral cortex membrane preparation (72 μg/well in terms of protein); from tissue; host or cells: male rat cerebral cortex membrane preparation
Method: Screening Test Using [^3H[Citalopram Binding
1-1. Preparation of a Cerebral Cortex Membrane Preparation
The membrane preparation was prepared according to the method^1) of D'amato et al. In detail, after a male rat was decapitated, the whole brain was immediately removed and the cerebral cortex was separated therefrom under ice-cooling. A buffer solution (50 mM Tris-HCl (pH=7.4), 120 mM NaCl, 5 mM KCl) was added to the cerebral cortex in an amount of 2.5 times the wet weight of the cerebral cortex, followed by homogenization in an ice bath by the use of a Teflon-glass homogenizer. The homogenate was centrifuged at 4° C. and 45,000×g for 10 minutes, and the resulting precipitate was dispersed in an ice-cooled buffer solution (50 mM Tris-HCl (pH=7.4), 120 mM NaCl, 5 mM KCl) by the use of Hiscotron™, followed by centrifugation at 4° C. and 45,000×g for 10 minutes. The resulting precipitate was re-suspended and the washing procedure was repeated. The membrane preparation thus obtained was suspended in the same buffer solution as described above, and then subjected to cryopreservation at −80° C.
1-2 Receptor Binding Experiment
[^3H]citalopram binding was measured according to the method^1) of D'amato et al. In detail, 50 μl of a dilution (final concentration: 0.7 nM) of [^3H]citalopram with 50 mM Tris-HCl (pH=7.4) buffer containing 120 mM NaCl and 5 mM KCl, 146 μl of the cerebral cortex membrane preparation (72 μg/well in terms of protein) and 4 μl of a solution of a test agent in dimethyl sulfoxide were mixed to make a total volume of 200 μl. The resulting liquid was allowed to react at room temperature for 60 minutes and then rapidly filtered by suction at a low pressure through glass fiber filter paper. The glass fiber filter paper was washed twice with 250 μl of the same buffer solution as above and then transferred to a glass vial containing 4 ml of ACS-II (Amersham), and the radio-activity remaining on the filter paper was measured with a liquid scintillation counter.
The amount of [^3H]citalopram bound in the presence of 100 μM 5-HT was taken as the amount of [^3H]citalopram non-specifically bound.
(§1) Rate of binding inhibition was calculated by the following equation:
Rate of binding inhibition (%)=100−100×{[amount of [^3H]citalopram bound in the presence of test agent]−[amount of [^3H]citalopram bound in the presence of 100 μM 5-HT]/[amount of [^3H]citalopram bound in the absence of test agent]−[amount of [^3H]citalopram bound in the presence of 100 μM 5-HT]}

[2] = biological target: T2, human 5-HT1A receptors (human 5-HT1A/CHO membrane preparation) (Homo sapiens, UniProt P08908); assay: 5-HT1A receptor actuation test, [35S]GTPγS binding (Test Example 3); type: biochemical; conditions: 10^-5 M test substance; rate of increase in [35S]GTPγS binding, increase due to 10 μM 5-HT taken as 100%
T2 construct: expressed in transfected cells; host or cells: CHO cells (human 5-HT1A/CHO), Geneticin-selected
T2 sequence (P08908 1-422): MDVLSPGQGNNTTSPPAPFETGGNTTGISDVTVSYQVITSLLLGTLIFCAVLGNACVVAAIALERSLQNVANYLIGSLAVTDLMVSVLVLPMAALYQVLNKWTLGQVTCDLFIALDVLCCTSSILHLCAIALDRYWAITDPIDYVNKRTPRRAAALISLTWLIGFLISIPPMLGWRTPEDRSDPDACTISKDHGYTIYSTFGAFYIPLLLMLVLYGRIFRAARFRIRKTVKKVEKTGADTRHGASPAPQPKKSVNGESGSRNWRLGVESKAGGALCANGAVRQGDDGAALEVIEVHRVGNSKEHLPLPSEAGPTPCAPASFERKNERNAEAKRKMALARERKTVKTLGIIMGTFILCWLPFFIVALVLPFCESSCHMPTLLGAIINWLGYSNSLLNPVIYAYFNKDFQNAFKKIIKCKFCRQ
Method: 5-HT1A Receptor Actuation Test
3-1. Cells Used and Preparation of a Membrane Preparation
Human ^5-HT1A receptor expression CHO cells (human 5-HT1A/CHO) were used in the experiment. The cells were cultured on F12 containing 10% FCS, 500 μg/ml Geneticin and 100 U/ml penicillin-100 μg/ml streptomycin (all available from GIBCO) in a 5% CO2 incubator, and a membrane preparation was prepared according to the method^3) of A. Newman et al. In detail, cells peeled and collected by the use of buffer solution A (20 mM HEPES, 5 mM MgSO4) were homogenized in a Teflon homogenizer, followed by centrifugation (50,000×g, 30 min, 4° C.). The precipitate was re-suspended in a suitable volume of buffer solution A and stored at −80° C. until use The amount of proteins in the membrane preparation was determined with Dye Reagent Concentrate (BIO-RAD) by using Albumin Bovine (SIGMA) as a standard substance.
Binding of [^35S]GTPγS to human 5-HT1A receptors was measured by the use of the above-mentioned membrane preparation according to the method^3) of Newman et al. In detail, 0.05 nM of [^35S]GTPγS (E. I. du Pont de Nemours & Co. NEN) and a definite amount (about 50 μg/tube) of the membrane preparation were added to buffer solution B (20 mM HEPES, 3 mM MgSO4, 3 μM GDP, 1 mM DTT) containing 10^−5M of each test substance, and the resulting liquid for reaction having a total volume of 1 ml was incubated at 22° C. for 20 minutes. After completion of the reaction, the reaction mixture was diluted with 5 ml of ice-cooled buffer solution B, and the dilution was rapidly filtered by suction at a low pressure through glass fiber filter paper (Whatman, GF/B) to terminate the reaction. The glass fiber filter paper was washed twice with the same buffer solution as above and placed in a vial, and 4 ml of ACS-II was added thereto. The radioactivity of [^35S]GTPγS on the filter paper was measured with a liquid scintillation counter. The amount of [^35S]GTPγS specifically bound was calculated from the amount of [^35S]GTPγS non-specifically bound in the presence of 10 μM of GTPγS (Sigma). The 5-HTLA receptor actuating activity of each test substance was expressed in terms of the rate of increase in [^35S]GTPγS binding by taking an increase in [^35S]GTPγS binding due to 10 μM of 5-HT as 100%.

[3] = biological target: T3, serotonin 1A receptors ([3H]8-OH-DPAT binding, hippocampus membrane preparation) (Rattus norvegicus, UniProt P19327); assay: [3H]8-OH-DPAT binding test (Test Example 2); conditions: 2 nM [3H]8-OH-DPAT, test agent concentration not given, read-out: Rate of inhibition of [^3H] 8-OH-DPAT binding (%)
T3 construct: 146 μl of the hippocampus membrane preparation (80 μg/tube in terms of protein); from tissue; host or cells: male rat hippocampus membrane preparation
T3 sequence (P19327 1-422): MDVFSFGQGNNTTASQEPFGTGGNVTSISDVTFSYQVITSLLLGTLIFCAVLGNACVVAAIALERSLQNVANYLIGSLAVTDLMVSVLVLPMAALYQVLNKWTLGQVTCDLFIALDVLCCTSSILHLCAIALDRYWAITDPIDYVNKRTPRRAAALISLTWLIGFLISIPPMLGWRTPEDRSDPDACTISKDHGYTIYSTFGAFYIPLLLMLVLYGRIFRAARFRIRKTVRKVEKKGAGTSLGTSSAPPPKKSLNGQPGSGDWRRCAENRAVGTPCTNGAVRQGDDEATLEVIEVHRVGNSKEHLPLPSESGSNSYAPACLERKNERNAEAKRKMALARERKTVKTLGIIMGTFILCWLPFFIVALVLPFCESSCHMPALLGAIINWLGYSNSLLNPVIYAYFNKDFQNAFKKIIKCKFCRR
Method: [^3H]18-OH-DPAT Binding Test
The test was carried out according to the method^2) of Hall M. D. et al. After pre-breeding for about 1 week, a male rat was decapitated and the brain was immediately removed. The hippocampus was separated from the brain on ice, and 50 mM Tris-HCl (pH=7.4) was added to the hippocampus in an amount of 40 times the wet weight of the hippocampus, followed by homogenization (3 min, 1 stroke/min) in an ice bath by the use of a Teflon-glass homogenizer. Then, the homogenate was centrifuged (4° C.) at 40,000×g for 10 minutes. The resulting precipitate was dispersed in an ice-cooled buffer solution (50 mM Tris-HCl (pH=7.4)) by the use of Hiscotron, followed by centrifugation (4° C.) at 40,000×g for 10 minutes. Moreover, the resulting precipitate was re-suspended and the washing procedure was repeated once. The precipitate thus obtained was dispersed in an ice-cooled buffer solution (50 mM Tris-HCl (pH=7.4)) by the use of Hiscotron™, and the resulting dispersion was incubated at 37° C. for 1 hour and then centrifuged (4° C.) at 40,000×g for 10 minutes. Furthermore, the resulting precipitate was re-suspended and the washing procedure was repeated once. The resulting membrane preparation was suspended in the same buffer solution as described above, and then subjected to cryopreservation at −80° C.
Measurement was carried out by using a liquid for reaction obtained by adding 50 μl of [^3H]8-OH-DPAT (final concentration: 2 nM), 4 μl of a solution of a test agent and 146 μl of the hippocampus membrane preparation (80 μg/tube in terms of protein) to a buffer solution containing 50 mM Tris-HCl (pH=7.4) and 4 mM CaCl2 to make a total volume of 200 μl. The liquid for reaction was allowed to react at room temperature for 30 minutes and then rapidly filtered by suction at a low pressure through glass fiber filter paper. The glass fiber filter paper was washed twice with 250 μl of a buffer solution and then added to a glass vial containing 4 ml of ACS-II (Amersham), and the radioactivity bound to receptors and remaining on the filter paper was measured with a liquid scintillation counter. The amount of [^3H]8-OH-DPAT bound in the presence of 1 μM of 8-OH-DPAT was taken as the amount of [^3H]8-OH-DPAT non-specifically bound.
as §1
Rate of binding inhibition (%)=100−100×{[amount of [^3H]8-OH-DPAT bound in the presence of test substance]−[amount of [^3H]8-OH-DPAT bound in the presence of 1 μM 8-OH-DPAT]/[amount of [^3H]8-OH-DPAT bound in the absence of test substance]−[amount of [^3H]8-OH-DPAT bound in the presence of 1 μM 8-OH-DPAT]}

T1 sequence (P31652 whole entry): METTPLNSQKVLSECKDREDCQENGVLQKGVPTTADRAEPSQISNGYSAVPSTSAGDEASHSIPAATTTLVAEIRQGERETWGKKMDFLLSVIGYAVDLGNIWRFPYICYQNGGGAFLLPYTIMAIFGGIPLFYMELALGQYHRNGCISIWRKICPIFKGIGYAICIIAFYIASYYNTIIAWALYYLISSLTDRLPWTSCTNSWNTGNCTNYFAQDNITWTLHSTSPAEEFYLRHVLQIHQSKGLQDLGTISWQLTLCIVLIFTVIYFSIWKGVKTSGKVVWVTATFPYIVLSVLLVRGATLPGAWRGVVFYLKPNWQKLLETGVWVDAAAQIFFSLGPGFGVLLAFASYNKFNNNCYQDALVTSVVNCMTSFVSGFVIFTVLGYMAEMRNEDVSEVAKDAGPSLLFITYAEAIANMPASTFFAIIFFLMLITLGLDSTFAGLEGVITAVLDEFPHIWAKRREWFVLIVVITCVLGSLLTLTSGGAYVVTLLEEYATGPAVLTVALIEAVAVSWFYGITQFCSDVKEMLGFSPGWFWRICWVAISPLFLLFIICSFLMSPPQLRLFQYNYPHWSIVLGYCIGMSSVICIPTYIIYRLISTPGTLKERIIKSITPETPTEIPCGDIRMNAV

| inhibition [1] | 5-HT14 receptor actuating activity (%) [2] | inhibition [3] | SMILES |
| --- | --- | --- | --- |
| 91% | 52% | 94% | COc1ccc(Br)c(CC2CCN(CCc3cccnc3)CC2)c1 [Example 103, N-(2-(3-pyridyl)ethyl)-4-(2-bromo-5-methoxybenzyl)piperidine] |
| 86% | 48% | 74% | CCOc1ccc(Br)c(CC2CCN(CCc3ccccc3Cl)CC2)c1 [Example 169, N-(2-(2-chlorophenyl)ethyl)-4-(2-bromo-5-ethoxybenzyl)piperidine] |
| 100% | 49% | 72% | COc1ccc(Cl)c(CC2CCN(CCCN3C(=O)c4ccccc4C3=O)CC2)c1 [Example 82, N-(3-phthaliminopropyl)-4-(2-chloro-5-methoxybenzyl)piperidine] |
| 98% | 48% | 47% | NC(=O)c1cccc(CCN2CCC(Cc3ccccc3Br)CC2)c1 [Example 49] |
| 100% | 19% | 98% | COc1ccc(Br)c(CC2CCN(Cc3cccc(C(=O)NCc4ccccc4)c3)CC2)c1 [Example 12] |

| SMILES | inhibition [1] | 5-HT14 receptor actuating activity (%) [2] | inhibition [3] |
| --- | --- | --- | --- |
| COc1ccc(Br)c(CC2CCN(CCc3ccccc3)CC2)c1 [Example 11, N-phenethyl-4-(2-bromo-5-methoxybenzyl)-piperidine] | 82% | 32% | 96% |
| COc1ccc(Br)c(CC2CCN(CCc3cccc4ccccc34)CC2)c1 [Example 54, N-(2-(1-naphthyl)ethyl)-4-(2-bromo-5-methoxybenzyl)piperidine] | 73% | – | 92% |
